According to publication PMC12118597 (Science Advances, 2025):
Where “and” joins values, the source holds several entries; their conditions need not be identical. Equal entries are not always repeated. Where two headings read alike, the source gives them in different places.

Biological target: SARS-CoV-2 NSP3 macrodomain (Mac1) (Severe acute respiratory syndrome coronavirus 2, UniProt P0DTD1)
Assay type: binding
[1] = DMSO background map; event 1; soak concentration 10 mM
[2] = DMSO background map; soak concentration 10 mM
[3] = PanDDA background density correction factor
[4] = TRUE = ligand-bound crystal structure obtained (PDB code given)
[5] = crystal soak concentration 20 mM, DMSO background map
[6] = crystal soak concentration 20 mM, DMSO background map, event 1
[7] = crystal soak concentration 20 mM, P43 crystals
[8] = crystal soak, P43 crystals; soak concentration 10 mM
[9] = crystal soak, P43 crystals; soak concentration 10 mM for the hits shown
[10] = ligand conformations modeled in the crystal structure
[11] = refined crystallographic occupancy
[12] = site of Mac1 occupied in the X-ray crystal structure (Adenosine or Distal)
[13] = PanDDA background density correction, 1-BDC
[14] = soak concentration 10 mM, DMSO background map
[15] = soak concentration 10 mM, P43 crystals
[16] = soak concentration 3 mM, DMSO background map
[17] = soak concentration 3 mM, P43 crystals
[18] = crystal soak 10 mM, P43 crystal form
[19] = crystal soak 10 mM; DMSO background map

SMILES | Occupancy difference (refined_occupancy - 2*(1-BDC)) | PanDDA run, DMSO background map: 1-BDC [1] | PanDDA run, DMSO background map: Hit [2] | 1-BDC [3] | X-ray crystal structure [4] | Hit (PanDDA run, DMSO background map) [5] | 1-BDC (PanDDA run, DMSO background map) [6] | Hit (PanDDA run, overall) [7] | Modeling comment (PanDDA run, overall) [7] | PanDDA run, overall: Hit [9] | Total number of conformations [10] | 2*(1-BDC) (%) (occupancy estimate from PanDDA) | Refined ligand occupancy (%) [11] [%] | Binding site [12] | PanDDA run, DMSO background map: 1-BDC [14] | PanDDA run, DMSO background map: Hit [14] | PanDDA run, overall: Hit [15] | other results
O=C(O)C1CCCN1S(=O)(=O)c1cccc2nsnc12 (stereo not drawn) [AVI-2] | 10 | 0.2 | TRUE | 0.2 | TRUE | TRUE | 0.22 | TRUE | Duplicate, not modeled | TRUE | 1 | 40 | 50 | Adenosine | – | – | – | PanDDA run, DMSO background map: Modeled [2]: TRUE; PanDDA run, overall: Modeled [8]: TRUE
c1ccc(-n2nnnc2CSc2nnc(NC3CC3)s2)cc1 [AVI-286] | 0 | 0.11 | TRUE | 0.11 | TRUE | – | – | – | – | TRUE | 1 | 22 | 22 | Distal | – | – | – | PanDDA run, DMSO background map: Modeled [2]: TRUE; PanDDA run, overall: Modeled [8]: TRUE
O=C(O)C(c1ccccc1)n1sc2ccccc2c1=O (stereo not drawn) [AVI-288] | – | 0.26 | TRUE | – | TRUE | TRUE | 0.37 | TRUE | – | TRUE | – | 74 | – | Adenosine | – | – | – | 1-BDC [13]: 0.37; Modeled (PanDDA run, DMSO background map) [5]: TRUE; Modeled (PanDDA run, overall) [7]: TRUE; PanDDA run, overall: Modeling comment [8]: Duplicate, not modeled; Refined ligand occupancy (%) (crystallographic refinement): 74%
CC(C)n1nnnc1SCc1c(C(=O)O)sc2cccc(F)c12 [AVI-291] | – | 0.25 | TRUE | – | TRUE | TRUE | 0.34 | TRUE | Second ligand conformation, not modeled, DMSO x2 | TRUE | – | 68 | – | Adenosine | – | – | – | 1-BDC [13]: 0.34; Modeled (PanDDA run, DMSO background map) [5]: TRUE; Modeled (PanDDA run, overall) [7]: TRUE; PanDDA run, overall: Modeling comment [8]: Duplicate, not modeled; Refined ligand occupancy (%) (crystallographic refinement): 68%
Nc1nnc(SCCn2c(=O)oc3ccccc32)s1 [AVI-296] | 0 | 0.06 | TRUE | 0.06 | TRUE | – | – | – | – | TRUE | 1 | 12 | 12 | Distal | – | – | – | PanDDA run, DMSO background map: Modeled [2]: TRUE; PanDDA run, overall: Modeled [8]: TRUE
CCn1c(C)nnc1Sc1cnc2ccccc2n1 [AVI-297] | – | 0.05 | TRUE | – | – | – | – | – | – | TRUE | – | – | – | – | – | – | – | PanDDA run, overall: Modeling comment [8]: Only density for quinoxaline, not modeled
CC1CC(C(=O)O)CCN1C(=O)c1ccc2c(c1)OCC(=O)N2 (stereo not drawn) [AVI-303] | 0 | 0.13 | TRUE | 0.13 | TRUE | TRUE | 0.19 | TRUE | Duplicate, not modeled | TRUE | 1 | 26 | 26 | Adenosine | – | – | – | PanDDA run, DMSO background map: Modeled [2]: TRUE; PanDDA run, overall: Modeled [8]: TRUE
COc1ccc(NC(=O)NC2CCCC2)cc1-n1nnnc1C [AVI-311] | – | – | – | – | – | TRUE | 0.12 | TRUE | Weak density, not modeled | – | – | – | – | – | 0.09 | TRUE | TRUE | PanDDA run, overall: Modeling comment [15]: Weak density, not modeled
O=C(Nc1ccsc1C(=O)O)c1ccc2c(c1)OCO2 [AVI-316] | 0 | – | – | 0.07 | TRUE | TRUE | 0.12 | TRUE | Duplicate, not modeled | – | 1 | 14 | 14 | Adenosine | 0.07 | TRUE | TRUE | PanDDA run, DMSO background map: Modeled [14]: TRUE; PanDDA run, overall: Modeled [15]: TRUE
Cc1sc2ncnc(Sc3ccccc3C(=O)O)c2c1C [AVI-317] | 30 | – | – | 0.15 | TRUE | – | – | – | – | – | 2 | 30 | 60 | Adenosine | 0.17 and 0.15 | TRUE | TRUE | PanDDA run, DMSO background map: Modeled [14]: TRUE; PanDDA run, overall: Modeled [15]: TRUE; PanDDA run, overall: Modeling comment [15]: Duplicate, not modeled
Cc1c(C)n(Cc2ccccc2)c2ncnc(N)c12 [AVI-321] | 0 | – | – | 0.08 | TRUE | – | – | – | – | – | 1 | 16 | 16 | Adenosine | – | – | – | PanDDA run, DMSO background map: 1-BDC [16]: 0.08; PanDDA run, DMSO background map: Hit [16]: TRUE; PanDDA run, DMSO background map: Modeled [16]: TRUE; PanDDA run, overall: Hit [17]: TRUE; PanDDA run, overall: Modeled [17]: TRUE
Cc1cc2c(=O)n(CCN3C(=O)c4ccccc4S3(=O)=O)nnc2s1 [AVI-341] | 14 | – | – | 0.18 | TRUE | TRUE | 0.19 | TRUE | Duplicate, not modeled | – | 1 | 36 | 50 | Adenosine | 0.18 | TRUE | TRUE | PanDDA run, DMSO background map: Modeled [14]: TRUE; PanDDA run, overall: Modeled [15]: TRUE
CNc1ccc(NS(=O)(=O)c2cc3cccc(C)c3s2)cn1 [AVI-345] | – | – | – | – | TRUE | TRUE | 0.26 | TRUE | – | – | – | 52 | – | Adenosine | 0.17 | TRUE | TRUE | 1-BDC [13]: 0.26; Modeled (PanDDA run, DMSO background map) [5]: TRUE; Modeled (PanDDA run, overall) [7]: TRUE; Refined ligand occupancy (%) (crystallographic refinement): 52%; PanDDA run, overall: Modeling comment [15]: Duplicate, not modeled
CC1CCN(C(=O)c2ccc3c(c2)nc(CO)n3C)CC1C(=O)O (stereo not drawn) [AVI-348] | 0 | – | – | 0.25 | TRUE | TRUE | 0.34 | TRUE | Duplicate, not modeled | – | 1 | 50 | 50 | Adenosine | 0.25 | TRUE | TRUE | PanDDA run, DMSO background map: Modeled [14]: TRUE; PanDDA run, overall: Modeled [15]: TRUE
OC[C@@H]1C[C@H](F)CN1c1ncnc2[nH]ccc12 [AVI-609] | 0 | – | – | 0.17 | – | – | – | – | – | – | 1 | 34 | 34 | – | – | – | – | PanDDA run, overall: Hit [18]: TRUE; PanDDA run, DMSO background map: 1-BDC [19]: 0.17; PanDDA run, DMSO background map: Hit [19]: TRUE; X-ray crystal structure (ligand-bound crystal structure obtained (TRUE)): TRUE; Binding site (site occupied in X-ray crystal structure): Adenosine
NC(=O)C1(O)CCN(c2ncnc3[nH]ccc23)C1 (stereo not drawn) [AVI-611] | 0 | – | – | 0.22 | – | – | – | – | – | – | 2 | 44 | 44 | – | – | – | – | X-ray crystal structure (TRUE = crystal structure with ligand obtained): TRUE; PanDDA run, overall: Hit [18]: TRUE; PanDDA run, DMSO background map: 1-BDC [19]: 0.22; PanDDA run, DMSO background map: Hit [19]: TRUE; Binding site (site of Mac1 occupied in the X-ray crystal structure): Adenosine
